Assay: molar heat capacity at constant pressure
Settings: 101.33 kPa, Crystal, Vacuum adiabatic calorimetry

O=C(CO)[C@H](O)[C@H](O)[C@H](O)CO [D-psicose]
Settings	molar heat capacity at constant pressure [J/K/mol]
123.06 K	95.25
123.75 K	95.92
124.29 K	96.23
124.5 K	96.3
125.14 K	96.92
125.8 K	97.36
125.92 K	97.34
126.54 K	97.93
127.3 K	98.49
127.33 K	98.38
127.93 K	98.98
128.73 K	99.42
128.78 K	99.54
129.31 K	99.93
130 K	100.42
130.16 K	100.47
130.29 K	100.63
130.71 K	100.99
131.62 K	101.53
131.84 K	101.76
132.14 K	102.08
133.07 K	102.57
133.37 K	102.87
133.59 K	103.04
134.51 K	103.62
134.89 K	103.97
135.06 K	104.17
135.94 K	104.68
136.44 K	105.12
136.51 K	105.24
137.4 K	105.69
137.99 K	106.23
138.07 K	106.25
138.89 K	106.78
139.5 K	107.37
139.73 K	107.46
140 K	107.65
140.36 K	107.86
141 K	108.43
141.38 K	108.63
141.83 K	108.94
142.49 K	109.66
143.02 K	109.81
143.29 K	109.97
143.97 K	110.56
144.64 K	111.02
144.78 K	111.03
145.47 K	111.62
146.29 K	112.11
146.3 K	112.15
147.05 K	112.77
147.84 K	113.18
147.99 K	113.34
148.65 K	113.9
149.42 K	114.29
149.66 K	114.52
150 K	114.81
150.25 K	115.05
150.99 K	115.45
151.33 K	115.73
151.83 K	116.23
152.59 K	116.62
152.98 K	116.92
153.45 K	117.32
154.22 K	117.72
154.66 K	118.11
155.09 K	118.5
155.87 K	118.94
156.38 K	119.3
156.72 K	119.64
157.54 K	120.08
158.08 K	120.68
158.34 K	120.83
159.19 K	121.26
159.8 K	121.76
159.95 K	121.9
160 K	121.93
160.88 K	122.45
161.55 K	122.94
161.59 K	123.12
162.65 K	123.73
163.25 K	124.33
163.33 K	124.2
164.46 K	125
164.91 K	125.57
165.14 K	125.56
166.25 K	126.31
166.6 K	126.8
166.94 K	126.82
168.04 K	127.62
168.33 K	127.92
168.72 K	128.08
169.85 K	128.88
170 K	129.01
170.09 K	129.15
170.5 K	129.38
171.7 K	130.21
171.88 K	130.42
172.31 K	130.62
173.54 K	131.46
173.65 K	131.69
174.14 K	131.92
175.36 K	132.69
175.42 K	132.94
175.97 K	133.17
177.18 K	134.01
177.23 K	134.2
177.78 K	134.49
179.06 K	135.42
179.11 K	135.51
179.59 K	135.75
180 K	136.08
181.01 K	136.76
181.03 K	136.92
181.46 K	137.08
182.93 K	138.2
182.95 K	138.09
183.4 K	138.47
184.83 K	139.53
184.88 K	139.49
185.32 K	139.84
186.71 K	140.84
186.79 K	140.88
187.28 K	141.21
188.62 K	142.21
188.74 K	142.23
189.26 K	142.58
190 K	143.15
190.56 K	143.63
190.71 K	143.67
191.28 K	144.05
192.49 K	144.97
192.68 K	145.06
193.32 K	145.45
194.41 K	146.37
194.63 K	146.4
195.35 K	146.92
196.32 K	147.62
196.58 K	147.65
197.38 K	148.33
198.25 K	149.1
198.55 K	149.16
199.39 K	149.76
200 K	150.21
200.22 K	150.43
200.55 K	150.56
201.43 K	151.19
202.17 K	151.83
202.58 K	152.06
203.5 K	152.67
204.12 K	153.18
204.65 K	153.53
205.56 K	154.09
206.7 K	154.98
207.61 K	155.56
208.78 K	156.4
209.65 K	157.04
210 K	157.3
210.89 K	157.92
211.72 K	158.49
212.99 K	159.44
213.81 K	160.01
215.07 K	160.9
215.9 K	161.43
217.15 K	162.36
217.98 K	163.06
219.31 K	163.88
220 K	164.4
220.04 K	164.46
221.53 K	165.48
222.21 K	165.84
223.74 K	167.09
224.47 K	167.6
225.94 K	168.64
226.71 K	169.21
228.14 K	170.2
228.95 K	170.75
230 K	171.54
230.36 K	171.83
231.25 K	172.46
232.61 K	173.46
233.65 K	174.15
234.87 K	174.98
236.07 K	175.9
237.14 K	176.72
238.49 K	177.45
239.4 K	178.38
240 K	178.72
240.95 K	179.37
241.69 K	179.82
243.45 K	181.14
244.01 K	181.62
245.99 K	183.07
246.32 K	183.25
248.54 K	184.87
248.61 K	184.95
250 K	185.94
250.9 K	186.65
251.09 K	186.81
253.21 K	188.45
253.63 K	188.66
255.55 K	189.85
256.15 K	190.4
257.88 K	191.75
258.7 K	192.25
260 K	193.15
260.93 K	193.78
263.32 K	195.6
265.71 K	197.22
268.09 K	199.02
270 K	200.36
270.5 K	200.87
272.99 K	202.45
275.52 K	204.17
278.04 K	206.05
280 K	207.59
280.55 K	207.87
281.85 K	208.9
282.34 K	209.34
283.14 K	209.63
284.44 K	210.76
284.81 K	211
285.82 K	211.74
287.07 K	212.81
287.31 K	212.9
288.48 K	213.7
289.68 K	214.75
289.9 K	214.79
290 K	214.85
291.13 K	215.63
292.28 K	216.49
292.52 K	216.73
293.77 K	217.6
294.87 K	218.44
295.13 K	218.64
296.44 K	219.94
297.49 K	220.33
298.15 K	220.79
299.14 K	221.01
300 K	222.14
300.13 K	222.34
301.82 K	223.5
302.77 K	224.25
304.49 K	225.49
305.39 K	226.09
307.15 K	227.47
308 K	228.01
309.84 K	229.4
310 K	229.48
310.63 K	229.95
312.56 K	231.38
313.29 K	231.87
315.26 K	233.4
315.94 K	233.92
318.01 K	235.4
318.58 K	235.78
320 K	236.88
320.81 K	237.33
321.2 K	237.81
323.64 K	239.66
323.85 K	239.71
326.49 K	241.59
326.53 K	241.79
329.19 K	243.75
329.33 K	243.86
330 K	244.34

Source: the NIST ThermoML archive (doi:10.1016/j.jct.2018.11.014)
